# Assay results from patent publication US8283373B2, “Inhibitors of cytosolic phospholipase A2” (Pfizer Inc., priority 2005, dated 2012).
# Experiments:
# cPLA2α = target: T1, cPLA2α (Homo sapiens, UniProt P47712); assay: GLU Micelle Assay; assay type: biochemical
# T1 sequence (P47712 1-749): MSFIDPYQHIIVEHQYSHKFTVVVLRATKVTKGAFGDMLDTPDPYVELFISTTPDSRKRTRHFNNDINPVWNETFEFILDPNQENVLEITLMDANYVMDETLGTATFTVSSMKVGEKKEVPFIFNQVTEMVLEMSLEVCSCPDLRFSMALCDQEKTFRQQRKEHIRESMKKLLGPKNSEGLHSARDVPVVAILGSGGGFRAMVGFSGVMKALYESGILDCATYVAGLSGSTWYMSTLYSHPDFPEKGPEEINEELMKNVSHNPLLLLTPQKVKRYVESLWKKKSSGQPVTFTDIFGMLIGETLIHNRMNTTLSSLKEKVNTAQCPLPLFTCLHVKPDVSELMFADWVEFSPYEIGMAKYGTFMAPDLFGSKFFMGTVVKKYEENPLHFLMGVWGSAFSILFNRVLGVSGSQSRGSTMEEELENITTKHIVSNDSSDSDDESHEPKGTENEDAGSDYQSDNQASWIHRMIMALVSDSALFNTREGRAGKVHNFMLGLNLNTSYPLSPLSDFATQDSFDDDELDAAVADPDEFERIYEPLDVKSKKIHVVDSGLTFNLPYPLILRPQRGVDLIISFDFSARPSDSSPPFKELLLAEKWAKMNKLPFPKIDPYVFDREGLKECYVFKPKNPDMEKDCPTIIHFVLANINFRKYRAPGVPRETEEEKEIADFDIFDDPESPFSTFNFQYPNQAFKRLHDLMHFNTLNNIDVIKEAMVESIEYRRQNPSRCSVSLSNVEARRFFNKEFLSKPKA
# Procedure, shortened: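 Fluorogenic micelle assay with 1 μg/ml cPLA2α and 90 μM GLU substrate plus 120 μM DTPC in 940 μM Triton X-100, 50 mM Hepes pH 7.4, 0.3 mM EDTA, 1 mM CaCl2, 300 mM KCl. Fluorescence (ex 355/em 460) was read every 4 min for 84 min. Percent inhibition came from slopes relative to positive and negative controls.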
# TXB2 = assay: Rat Whole Blood Assay (A23187-stimulated TXB2); assay type: cell-based; details: Rattus norvegicus; A23187 5 μM
# Procedure, shortened: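 Heparinized male Sprague-Dawley rat blood pre-incubated 15 min at 37 °C with compound or DMSO, then stimulated with 5 μM (final) A23187 for 10 min at 37 °C. Stopped with 20 mM EDTA; TXB2 in methanol-extracted plasma measured by ELISA.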
# [1] = test system: Human platelet aggregation; assay: Platelet Function Analyzer (PFA-100) study; assay type: cell-based; details: whole human blood
# Protocol: Human platelet aggregation was studied using the platelet function analyzer (PFA-100®). Human blood was collected from volunteers who had denied taking any platelet inhibitory medications over the previous two weeks. Blood was collected in 3.2% sodium citrate Vacutainer tubes (Becton Dickinson). Tubes were inverted 5 times and the blood was transferred to 15 ml polypropylene conical tubes. […] Tubes were inverted 10 times to mix, and allowed to sit at room temperature for 10 minutes prior to run in PFA-100. The manufacturers protocol was followed for the PFA-100 using Collagen/Epinephrine cartridges (0.5% DMSO alone in whole blood gave closure times of 125+/−13.9 seconds). Maximum closure time is 300 seconds, as set by the manufacturer.
# All compounds were efficacious in the platelet function assay.
# [2] = test system: FeCl3-induced arterial thrombosis; assay: FeCl3-induced model of arterial thrombosis; assay type: in vivo; details: rat, 25 mg/kg oral gavage 2 h before FeCl3 injury
# Protocol: Two hours prior to induction of vascular injury, Sprague Dawley outbreed rats (80-100 gram of body weight) received 4-(3-{5-chloro-1-(diphenylmethyl)-2-[2-({[2-fluoro-6-(trifluoromethyl)benzyl]sulfonyl}amino)ethyl]-1H-indol-3-yl}propyl)benzoic acid (Example 14) or 4-(3-{5-chloro-1-(diphenylmethyl)-2-[2-({[2-(trifluoromethoxy)benzyl]sulfonyl}amino)ethyl]-1H-indol-3-yl}propyl)benzoic acid (Example 25) at a dose of 25 mg/kg by oral gavage. The total volume of gavage was 0.5 ml. The control group of animals had been treated with only vehicle. Fifteen minutes before vascular injury rats were anesthetized by an intramuscular injection of a ketamine/xylazyne mixture. Following anesthesia the left carotid artery was dissected and exposed for further measurements. For induction of prothrombotic injury, a round piece of filter paper (2 mm in diameter) soaked in 10% of FeCl3 solution was applied onto the wall of the exposed vessel. After 5 minutes the filter paper was removed and the 1PRB perivasular Doppler flow probe (Transonic Systems Inc.) was secured around the carotid artery to measure blood flow. Blood flow was recorded for a total period of 30 minutes using Transonic Flow Meter (model TS420, Transonic Systems Inc.) and Windaq data acquisition software.
# serum thromboxane B2 [3] = assay: Thromboxane B2 levels in rats with FeCl3 induced thrombosis; assay type: in vivo, rat; details: rats subjected to ferric chloride injury, ELISA
# Protocol: Blood was collected from rats that were dosed with vehicle, the compound of Example 14 or the compound of Example 25, and subjected to the ferric chloride Injury protocol above. Blood was collected from the vena cava and blood coagulation was allowed to take place for 1 hour at 37 degree Celsius. Serum was then isolated and serum thromboxane B2 levels were determined by ELISA.
# [4] = test system: experimental autoimmune encephalomyelitis (EAE); assay: Experimental autoimmune encephalomyelitis (EAE) model of multiple sclerosis; assay type: in vivo, mouse; details: administered from the time of immunization, or in mice with or close to EAE
# Protocol: Six groups of B6 mice were immunized with MOG/CFA and injected with pertussis toxin to induce experimental autoimmune encephalomyelitis (EAE), an animal model of Multiple sclerosis. Three groups of mice were treated with vehicle, 4-{3-[1-benzhydryl-5-chloro-2-(2-{[(2,6-dimethylbenzyl)sulfonyl]amino}ethyl)-1H-indol-3-yl]propyl}benzoic acid (Compound A), or 4-{2-[1-benzhydryl-5-chloro-2-(2-{[(3,4-dichlorobenzyl)sulfonyl]amino}-ethyl)-1H-indol-3-yl]ethoxy}benzoic acid (Compound B) from the day of Immunization (orally, 100 mg/kg, twice/day). Another three groups of mice were treated with vehicle, Compound A or Compound B starting on the day of EAE onset (day 15) (orally, 100 mg/kg, twice/day). […] The results are shown in the Table below, wherein mean clinical score is a mean of clinical evaluation of each animal for that particular day.
# Animals are Scored as Follows:
# • 0—no clinical signs of EAE (no paralysis) • 1—paralysis of tail • 2—paralysis of tail and partial hind leg paralysis • 3—paralysis of tail and complete hind leg paralysis • 4—paralysis of tail, complete hind leg paralysis and a partial front leg paralysis • 5—moribund animal (all four limbs paralyzed, lack of responsiveness, these mice were immediately euthanized).
# In addition, the compounds of Examples 14 and 25 were also found to be efficacious in the mouse experimental autoimmune encephalomyelitis (EAE) model of multiple sclerosis. As shown by the data in the Table below, these compounds led to a delayed onset of disease and reduced severity of disease when administered orally in doses as low as 2.5 mg/kg.
# serum thromboxane B2 [5] = assay: Thromboxane B2 levels in the ApoE KO mouse model; assay type: in vivo; details: ApoE KO mice, 10 mg/kg by oral gavage; vehicle 267.9±34.3
# Protocol: Blood was collected through the retro-orbital siunus and left to coagulate at 37° C. for one hour. Serum was then isolated and assayed for thromboxane B2 by ELISA.
# In a separate experiment, ApoE KO mice were dosed with vehicle or the compound of Example 25 at 10 mg/kg by oral gavage. Blood was collected through the retro-orbital siunus and left to coagulate at 37° C. for one hour. Serum was then isolated and assayed for thromboxane B2 by ELISA.
SMILES,IC50 (cPLA2α),IC50 (TXB2),"platelet aggregation in human blood, in vitro (PFA-100, FIG. 1) [1]","PFA-100 closure time ([1]; Collagen/Epinephrine cartridges, 1.25 μg/ml)",blood flow and thrombus formation (FIG. 2) [2],serum thromboxane B2 levels (FIG. 3) (serum thromboxane B2 [3]),prevention of EAE / reduction of clinical severity [4],efficacy in PFA-100 platelet function assay ([1]; at concentrations as low as 0.3 μg/ml),serum Thromboxane concentration (serum thromboxane B2 [5])
"O=C(O)c1ccc(CCCc2c(CCNS(=O)(=O)Cc3c(F)cccc3C(F)(F)F)n(C(c3ccccc3)c3ccccc3)c3ccc(Cl)cc23)cc1 [Example 14, 4-(3-{5-chloro-1-(diphenylmethyl)-2-[2-({[2-fluoro-6-(trifluoromethyl)benzyl]sulfonyl}amino)ethyl]-1H-indol-3-yl}propyl)benzoic acid]",30 nM,20 nM,inhibition of platelet aggregation,increased closure time,improved blood flow and reduction of thrombus formation,reduction of serum thromboxane B2 levels,can prevent EAE,–,–
"O=C(O)c1ccc(CCCc2c(CCNS(=O)(=O)CCc3ccccc3C(F)(F)F)n(C(c3ccccc3)c3ccccc3)c3ccc(Cl)cc23)cc1 [Example 15, 4-[3-(5-chloro-1-(diphenylmethyl)-2-{2-[({2-[2-(trifluoromethyl)phenyl]ethyl}sulfonyl)amino]ethyl}-1H-indol-3-yl)propyl]benzoic acid]",68 nM,120 nM,–,–,improved blood flow and reduction of thrombus formation,–,–,–,–
"O=C(O)c1ccc(CCCc2c(CCNS(=O)(=O)Cc3ccccc3OC(F)(F)F)n(C(c3ccccc3)c3ccccc3)c3ccc(Cl)cc23)cc1 [Example 25, 4-(3-{5-chloro-1-(diphenylmethyl)-2-[2-({[2-(trifluoromethoxy)benzyl]sulfonyl}amino)ethyl]-1H-indol-3-yl}propyl)benzoic acid]",13 nM,30 nM,inhibition of platelet aggregation,–,–,reduction of serum thromboxane B2 levels,can prevent EAE,efficacious,9.4 ± 5.0 ng/mL
